According to patent publication EP4371556B1, “ANGIOTENSIN(1-7) PHARMACEUTICAL COMPOSITIONS FOR INHALATION” (Explicat Pharma GmbH, priority 2022, dated 2026):

Test: Phase solubility analysis (Higuchi-Connors plot) with HPβCD
Assay type: physicochemical
Conditions: different concentrations of HPβCD in isotonic saline solutions
Excerpt: In an attempt to solubilize the peptide, the effect of cyclodextrins was investigated. In particular, HPβCD, a cyclodextrin presented as preferable in most of the literature described above and used in composition for inhalation by Magalhães et al., was selected for testing. […] The skilled person is familiar with Higuchi-Connors plots and how to obtain them, as described, e.g., in Higuchi T. and Connors, Advances in Analytical Chemistry and Instrumentation, 1965, 177-212.

CC[C@H](C)[C@H](NC(=O)[C@H](Cc1ccc(O)cc1)NC(=O)[C@@H](NC(=O)[C@H](CCCNC(=N)N)NC(=O)[C@@H](N)CC(=O)O)C(C)C)C(=O)N[C@@H](Cc1c[nH]cn1)C(=O)N1CCC[C@H]1C(=O)O [AT1-7, Asp-Arg-Val-Tyr-Ile-His-Pro]
solubilising effect of HPβCD on AT1-7: substantially no solubilising effect
